Reference: ChEMBL document CHEMBL3885881, “DrugMatrix”

Organism: Rattus norvegicus
Assay: DrugMatrix - Regimen: Daily Repeat
Format: toxicity, organism-based, Sprague-Dawley
Set-up: regimen Daily Repeat, gender Male, age 6-8 weeks
Settings: in vivo, ip, 0 mg/kg, route intraperitoneal, dose level Control, […]; for ABSOLUTE BASOPHIL / ABSOLUTE EOSINOPHIL / ABSOLUTE LYMPHOCYTE / ABSOLUTE MONOCYTE / ABSOLUTE SEGMENTED NEUTROPHIL / BASOPHIL / EOSINOPHIL / ERYTHROCYTE COUNT / HEMATOCRIT / HEMOGLOBIN / LEUKOCYTE COUNT / LYMPHOCYTE / MEAN CORPUSCULAR HEMOGLOBIN / MEAN CORPUSCULAR HEMOGLOBIN CONCENTRATION / MEAN CORPUSCULAR VOLUME / MONOCYTE / NEUTROPHIL / NUCLEATED RED BLOOD CELLS / PLATELET COUNT: tissue Blood; for ALANINE AMINOTRANSFERASE / ALBUMIN / ALKALINE PHOSPHATASE / ASPARTATE AMINOTRANSFERASE / BLOOD UREA NITROGEN / CARBON DIOXIDE / CHLORIDE / CHOLESTEROL / CREATININE / GLUCOSE / LACTATE DEHYDROGENASE / LIPASE / PHOSPHORUS / POTASSIUM / SODIUM / TOTAL BILIRUBIN / TOTAL PROTEIN / URIC ACID: tissue Plasma

ClC(Cl)=C(Cl)C(Cl)=C(Cl)Cl [HEXACHLOROBUTADIENE]
ABSOLUTE BASOPHIL (72 h, time 3 day): 0 CELLS/uL | ABSOLUTE EOSINOPHIL (72 h, time 3 day): 135.5 CELLS/uL | ABSOLUTE LYMPHOCYTE (72 h, time 3 day): 9030.67 CELLS/uL | ABSOLUTE MONOCYTE (72 h, time 3 day): 286.5 CELLS/uL | ABSOLUTE SEGMENTED NEUTROPHIL (72 h, time 3 day): 1330.67 CELLS/uL | BASOPHIL (72 h, time 3 day): 0% | EOSINOPHIL (72 h, time 3 day): 1.17% | ERYTHROCYTE COUNT (72 h, time 3 day): 5.54 x10E6/uL | HEMATOCRIT (72 h, time 3 day): 35.2% | HEMOGLOBIN (72 h, time 3 day): 12.65 G/DL | LEUKOCYTE COUNT (72 h, time 3 day): 10.78 x10E3/uL | LYMPHOCYTE (72 h, time 3 day): 83.83% | MEAN CORPUSCULAR HEMOGLOBIN (72 h, time 3 day): 22.87 pg | MEAN CORPUSCULAR HEMOGLOBIN CONCENTRATION (72 h, time 3 day): 35.98 G/DL | MEAN CORPUSCULAR VOLUME (72 h, time 3 day): 63.7 fL | MONOCYTE (72 h, time 3 day): 2.5% | NEUTROPHIL (72 h, time 3 day): 12.5% | NUCLEATED RED BLOOD CELLS (72 h, time 3 day): 0 /100WBC | PLATELET COUNT (72 h, time 3 day): 853.5 x10E3/uL | ALANINE AMINOTRANSFERASE (72 h, time 3 day): 45.83 u/L | ALBUMIN (72 h, time 3 day): 4.22 G/DL | ALKALINE PHOSPHATASE (72 h, time 3 day): 344.5 u/L | ASPARTATE AMINOTRANSFERASE (72 h, time 3 day): 85.33 u/L | BLOOD UREA NITROGEN (72 h, time 3 day): 16.17 mg/dL | CARBON DIOXIDE (72 h, time 3 day): 33.33 mmol/L | CHLORIDE (72 h, time 3 day): 101.33 MEQ/L | CHOLESTEROL (72 h, time 3 day): 73.33 mg/dL | CREATININE (72 h, time 3 day): 0.19 mg/dL | GLUCOSE (72 h, time 3 day): 157.67 mg/dL | LACTATE DEHYDROGENASE (72 h, time 3 day): 160.33 u/L | LIPASE (72 h, time 3 day): 9.83 u/L | PHOSPHORUS (72 h, time 3 day): 11.4 mg/dL | POTASSIUM (72 h, time 3 day): 6.1 MEQ/L | SODIUM (72 h, time 3 day): 146.25 MEQ/L | TOTAL BILIRUBIN (72 h, time 3 day): 0.17 mg/dL | TOTAL PROTEIN (72 h, time 3 day): 6.3 G/DL | URIC ACID (72 h, time 3 day): 1.28 mg/dL | ABSOLUTE BASOPHIL (120 h, time 5 day): 0 CELLS/uL | ABSOLUTE EOSINOPHIL (120 h, time 5 day): 134 CELLS/uL | ABSOLUTE LYMPHOCYTE (120 h, time 5 day): 9272.17 CELLS/uL | ABSOLUTE MONOCYTE (120 h, time 5 day): 286 CELLS/uL | ABSOLUTE SEGMENTED NEUTROPHIL (120 h, time 5 day): 1357.83 CELLS/uL | BASOPHIL (120 h, time 5 day): 0% | EOSINOPHIL (120 h, time 5 day): 1.17% | ERYTHROCYTE COUNT (120 h, time 5 day): 5.83 x10E6/uL | HEMATOCRIT (120 h, time 5 day): 36.17% | HEMOGLOBIN (120 h, time 5 day): 13.1 G/DL | LEUKOCYTE COUNT (120 h, time 5 day): 11.05 x10E3/uL | LYMPHOCYTE (120 h, time 5 day): 83.83% | MEAN CORPUSCULAR HEMOGLOBIN (120 h, time 5 day): 22.5 pg | MEAN CORPUSCULAR HEMOGLOBIN CONCENTRATION (120 h, time 5 day): 36.25 G/DL | MEAN CORPUSCULAR VOLUME (120 h, time 5 day): 62 fL | MONOCYTE (120 h, time 5 day): 2.67% | NEUTROPHIL (120 h, time 5 day): 12.33% | NUCLEATED RED BLOOD CELLS (120 h, time 5 day): 0 /100WBC | PLATELET COUNT (120 h, time 5 day): 806.67 x10E3/uL | ALANINE AMINOTRANSFERASE (120 h, time 5 day): 50.83 u/L | ALBUMIN (120 h, time 5 day): 4.13 G/DL | ALKALINE PHOSPHATASE (120 h, time 5 day): 358.17 u/L | ASPARTATE AMINOTRANSFERASE (120 h, time 5 day): 148.83 u/L | BLOOD UREA NITROGEN (120 h, time 5 day): 13.83 mg/dL | CARBON DIOXIDE (120 h, time 5 day): 35.83 mmol/L | CHLORIDE (120 h, time 5 day): 99.33 MEQ/L | CHOLESTEROL (120 h, time 5 day): 80.5 mg/dL | CREATININE (120 h, time 5 day): 0.19 mg/dL | GLUCOSE (120 h, time 5 day): 156.33 mg/dL | LACTATE DEHYDROGENASE (120 h, time 5 day): 238.17 u/L | LIPASE (120 h, time 5 day): 9.17 u/L | PHOSPHORUS (120 h, time 5 day): 12.53 mg/dL | POTASSIUM (120 h, time 5 day): 6.34 MEQ/L | SODIUM (120 h, time 5 day): 145.15 MEQ/L | TOTAL BILIRUBIN (120 h, time 5 day): 0.18 mg/dL | TOTAL PROTEIN (120 h, time 5 day): 6.07 G/DL | URIC ACID (120 h, time 5 day): 1.3 mg/dL | ABSOLUTE BASOPHIL (time 14 day): 0 CELLS/uL | ABSOLUTE EOSINOPHIL (time 14 day): 56.5 CELLS/uL | ABSOLUTE LYMPHOCYTE (time 14 day): 12701 CELLS/uL | ABSOLUTE MONOCYTE (time 14 day): 330.33 CELLS/uL | ABSOLUTE SEGMENTED NEUTROPHIL (time 14 day): 2428.83 CELLS/uL | BASOPHIL (time 14 day): 0% | EOSINOPHIL (time 14 day): 0.33% | ERYTHROCYTE COUNT (time 14 day): 6.18 x10E6/uL | HEMATOCRIT (time 14 day): 36.42% | HEMOGLOBIN (time 14 day): 13.22 G/DL | LEUKOCYTE COUNT (time 14 day): 15.52 x10E3/uL | LYMPHOCYTE (time 14 day): 82.5% | MEAN CORPUSCULAR HEMOGLOBIN (time 14 day): 21.38 pg | MEAN CORPUSCULAR HEMOGLOBIN CONCENTRATION (time 14 day): 36.32 G/DL | MEAN CORPUSCULAR VOLUME (time 14 day): 58.92 fL | MONOCYTE (time 14 day): 2.17% | NEUTROPHIL (time 14 day): 15% | NUCLEATED RED BLOOD CELLS (time 14 day): 0 /100WBC | PLATELET COUNT (time 14 day): 999 x10E3/uL | ALANINE AMINOTRANSFERASE (time 14 day): 39.17 u/L | ALBUMIN (time 14 day): 4.05 G/DL | ALKALINE PHOSPHATASE (time 14 day): 275.17 u/L | ASPARTATE AMINOTRANSFERASE (time 14 day): 84.5 u/L | BLOOD UREA NITROGEN (time 14 day): 12 mg/dL | CARBON DIOXIDE (time 14 day): 29.5 mmol/L | CHLORIDE (time 14 day): 101 MEQ/L | CHOLESTEROL (time 14 day): 73.83 mg/dL | CREATININE (time 14 day): 0.19 mg/dL | GLUCOSE (time 14 day): 146.5 mg/dL | LACTATE DEHYDROGENASE (time 14 day): 285.67 u/L | LIPASE (time 14 day): 9 u/L | PHOSPHORUS (time 14 day): 11.67 mg/dL | POTASSIUM (time 14 day): 6.82 MEQ/L | SODIUM (time 14 day): 143.57 MEQ/L | TOTAL BILIRUBIN (time 14 day): 0.13 mg/dL | TOTAL PROTEIN (time 14 day): 6.23 G/DL | URIC ACID (time 14 day): 1.75 mg/dL
